# Data published in patent publication US7314959B2, “Amino thiol compounds and compositions for use in conjunction with cancer therapy” (Wisconsin Alumni Research Foundation, priority 2003, dated 2008).
# Like-named read-outs stand apart in the source and are kept apart here.
# How the values were obtained:
# [1] = system: p21 protein in 23SK human skin cells; test: p21 induction by western analysis; assay type: cell-based; conditions: 23SK cells, 30 hr exposure
# Experimental: FIGS. 3A and 3B illustrate the level of induced p21 protein seen in diploid human fibroblasts after a 30 hr exposure to each of the indicated chemoprotective polyamines. […] In these experiments, the 23SK human skin cells were exposed for 30 hr to an “IC80” dose of each of the indicated chemoprotective polyamines and then lysed. Cell extracts were then prepared in order to measure p21 levels by western analysis (FIG. 3A).
# FIG. 3 illustrates that chemoprotective polyamines are able to induce expression of the negative cell cycle regulatory protein, p21, after exposing the human skin cells to the polyamine molecules. […] In these experiments, the 23SK human skin cells were exposed for 30 hr to an “IC80” dose of each of the indicated chemoprotective polyamines and then lysed. Cell extracts were then prepared in order to measure p21 levels by western analysis (FIG. 3A). Although the ability of modified polyamines to induce p21 is known in the literature (Kramer, D. et al., Cancer Res. 59:1278-1286, 1999), it is a novel aspect of this invention that those chemoprotective polyamines with longer aliphatic “arms” were better able to induce expression of p21 as shown in FIG. 4.
# 23SK skin cells = test: Flow cytometry cell cycle distribution; assay type: cell-based, human
# Excerpt: FIGS. 5A-5D are cell histograms showing the results from flow cytometry analysis of chemoprotective polyamine-treated 23SK skin cells.
# In FIG. 5, cell histograms showing the results from flow cytometry analysis of chemoprotective polyamine-treated 23SK skin cells are shown. […] The transient nature of the cell cycle block induced by chemoprotective polyamines is believed to be an important aspect of their efficacy, i.e., their ability to block cell cycle progression in stem cells during the course of chemo- or radiotherapy, and the resumption of normal stem cell division after a given cancer therapy course has been completed.
# DNA = DNA binding/precipitation from solution
# Excerpt: The chemoprotective polyamines provided herein are also able to bind, denature and precipitate DNA from solution. As the skilled artisan will appreciate, as the concentration of polyamine is increased, there is a point where polyamine binding to helical B-DNA induces single-stranded ‘bubbles’ and conversion to other forms of DNA structure, such as Z-DNA (Feuerstein, B. et al., Nuc. Acids Res. 17:6883-6892, 1989; Basu, H. and Marton, L., Biochem. J. 244:243-246, 1987), as well as precipitating the DNA from solution.
# [2] = system: primary, diploid fibroblasts isolated from human skin; test: Growth inhibition of primary diploid human skin fibroblasts; assay type: cell-based; conditions: 50% inhibition of human skin fibroblast growth
# Experimental: The in vitro growth inhibitory effects of certain of the chemoprotective polyamines of the invention were measured using primary, diploid fibroblasts isolated from human skin.
# [3] = system: radiation-induced dermatitis on backs of rats; test: Radiation-induced dermatitis in rat skin model; assay type: in vivo; conditions: for protective activity against radiation-induced dermatitis: 370 mM, vehicle 50:30:20, scored 13 days later
# Experimental: To determine efficacy of chemoprotective polyamines in preventing radiation-induced dermatitis, adult rats were topically treated with the compounds before and after radiation treatment. Rats were exposed to medically relevant levels of radiation that could induce clinical radiation dermatitis. Sprague Dawley rats (Harlan Spraque Dawley) at 4-6 weeks-old were anesthetized with sodium pentobarbital at 40 mg/kg body weight (Sigma, St. Louis, Mo.) prior to radiation exposure. A defined area (1.5×2 cm) on the backs of rats was irradiated using a Mark I, Model 30, Cs 137 irradiator (J. L. Sheppard & Associates). Before topical drug treatment or irradiation, the backs of the rats were clipped using an Oster clipper at the closest setting. The rest of the body was protected from radiation exposure using a lead shield (2.5 cm thick). A dose response study was initially performed to reproduce relevant dermatitis that matched the Grade (I-IV) scale used to score the severity of radiation-induced dermatitis in humans. The severity of the dermatitis was scored 12-13 days post-irradiation at the peak of the dermal inflammation. […] Radiation dermatitis of Grade II-III was considered most clinically relevant, so a radiation dose of 8.7 Gy was typically used in the rats. The clipped back region on the rats was treated topically with aminothiol in delivery vehicle four times in the two hours immediately preceding irradiation (at −2 hr, −1 hr, −30 min, and −10 min; irradiation was at 0 min
# The polyamines or amino thiols were prepared in a delivery vehicle, consisting of ethanol:propylene glycol:water, ranging from 0:95:5 to 50:30:20 depending upon the solubility characteristics of the topical molecule, and the degree of dermal penetration desired. A vehicle composed of an emulsion formed by sonication of ‘nonionic liposomes’ and isopropyl myristate was also used (Jayaraman, S. et al., J. Pharm. Sci. 85:1082-1084, 1996). In a commonly used protocol, 220 μl of topical drug/vehicle was applied to an area ˜2 cm×3 cm on the back in the 2 hr just prior to irradiation. Rats treated with only the delivery vehicle served as controls. Twelve to thirteen days post-radiation, the rats were evaluated for dermatitis within the irradiated area. In early studies, a modified scoring scale described by Masuda K. et al., Int. J. Radiation Oncol. Biol. Phys: 12, 1645 (1986) was used, and in later studies, including those described here, a simplified scoring system was used in which the percentage of the irradiated, rectangular field covered with scrab material was estimated between 0 and 100% to provide scores on a scale between 0 and 100.
# This example relates to the use of a rat skin model to evaluate the efficacy of two amino thiol compounds in preventing radiation-induced dermatitis. To test whether topically-applied aminothiols could prevent the radiodermatitis caused by external beam radiotherapy, the rodent model described in Example 3 was slightly modified. Briefly, the radiodermatitis model involved: • i) shaving the backs of 6-7 week old rats or mice; • ii) applying four topical doses of aminothiol in a delivery vehicle composed of ethanol:propylene glycol (PG):water in the 2 hr prior to irradiation; • iii) irradiating a small, 3 cm^2 (1.5×2 cm) area on the animal's back (through a window in a lead plate) with 8.7 Gy of γ radiation from a Cs^137 source; and • iv) scoring the severity of the dermatitis 12-13 days later, at the peak of the inflammatory skin reaction. Radiodermatitis severity was scored by estimating the percentage of the irradiated field that was covered by scrab material.
# Methods: Treatments were applied as described in Example 6.
# cell cycle = conditions: Jeitner and Renton 1996; Snyder and Grdina 2000; Kramer et al. 1997; cited from earlier work
# [4] = Expt. 1, read-out: DNA Bind/ppt. IC50 (uM), Expt. 1
# [5] = Expt. 2, read-out: DNA Bind/ppt. IC50 (uM), Expt. 2
# [6] = Expt. 1, read-out: IC50 (uM), Expt. 1
# [7] = Expt. 2, read-out: IC50 (uM), Expt. 2
SMILES,IC50 (DNA; [4]) [µM],p21 fold-induction at IC80 Dose [1] [fold],Cell Cycle Distribution At IC80 Dose (%) G1 (23SK skin cells) [%],Cell Cycle Distribution At IC80 Dose (%) G2/M (23SK skin cells) [%],Cell Cycle Distribution At IC80 Dose (%) S (23SK skin cells) [%],"IC50 [2, 6] [µM]","IC50 [2, 7] [µM]",also measured
"CN[C@H]1CCc2cc(OC)c(OC)c(OC)c2-c2ccc(OC)c(=O)cc21 [Colcemid, reference compound]",,3.31,8,81,11,,,
CCNCCCCNCCCCNC/C=C(/CS)CNCCCCNCCCCNCC [PrC-115],37,,,,,4100,1090,IC50 (DNA; [5]): 83 µM
CCNCCCCNCCCCNCC=C(CO)CNCCCCNCCCCNCC [PrC-118],,,,,,78,,
CCNCCCCNCCCCNCC=C(CNCC)CNCCCCNCCCCNCC [PrC-111],88,2.22,60,14,25,980,180,
"NCC(CN)CS [PrC-211, 3-amino-2-aminomethyl-propane-1-thiol]",,,,,,,,"Dermatitis Score (% of irradiated field free of scab material) ([3]; 1400 mM PrC-211, vehicle 0:95:5 (ditto mark), cage 488): 60 ± 12%; concentration of topical aminothiol alone conferring complete protection against radiodermatitis ([3]; aminothiol alone, without epinephrine, 8.7 Gy): ~2200 mM"
CCNCCCCNC/C=C(/CS)CNCCCCNCC [PrC-114],94,,,,,850,240,
CCNCCCNCCCNCCCNCC [DENSPM],,,,,,,,cell cycle arrest reported in literature (cell cycle): G1-specific cell cycle block that was reversible
CCNCCCCNCCCCNCCCCNCCCCNCC=C(CNCC)CNCCCCNCCCCNCCCCNCCCCNCC [PrC-113],35,3.21,77,14,8,0.33,0.21,
"CC(C)S [Mechanism Structure 1, reference compound]",,,,,,,,protective activity against radiation-induced dermatitis ([3]; 8.7 Gy): neither molecule exhibited discernable protective activity
"CNCCCNC [Mechanism Structure 2, reference compound]",,,,,,,,protective activity against radiation-induced dermatitis ([3]; 8.7 Gy): neither molecule exhibited discernable protective activity
CCNCCCCNCCCCNCCCCNCC=C(CNCC)CNCCCCNCCCCNCCCCNCC [PrC-112],93,2.45,61,16,23,2.53,,

# Further lines, with some results ahead:
IC50 (DNA; [4]) [µM],SMILES,p21 fold-induction at IC80 Dose [1] [fold],Cell Cycle Distribution At IC80 Dose (%) G1 (23SK skin cells) [%],Cell Cycle Distribution At IC80 Dose (%) G2/M (23SK skin cells) [%],Cell Cycle Distribution At IC80 Dose (%) S (23SK skin cells) [%],"IC50 [2, 6] [µM]","IC50 [2, 7] [µM]",also measured
131,CCNCCCCNCCCCNCCCCNCC=C(CS)CNCCCCNCCCCNCCCCNCC [PrC-123],2.22,68,21,10,,,IC50 (DNA; [5]): 117 µM
58,CCNCCCCNCCCCNCCCCNCCCCNC/C=C(/CS)CNCCCCNCCCCNCCCCNCCCCNCC [PrC-117],~3.0,86,3,11,0.32,0.24,"IC50 (DNA; [5]): 57 µM; distribution within cell cycle compartments after drug removal (23SK skin cells; 72 hr treatment, then 48 hr in drug-free medium (FIG. 5D)): basically returned to that seen in cells previously untreated; cells in G1 compartment (23SK skin cells; treated 72 hr (FIG. 5C)): 86.23%; cells in S+G2 compartments (23SK skin cells; treated 72 hr (FIG. 5C)): 13.77%"
2600,"NCCCNCCCCNCCCN [Spermine, spermine, reference compound]",,,,,,,"IC50 for DNA binding/precipitation relative to most chemoprotective polyamines (DNA; spermine versus chemoprotective polyamines of Table 2): ~1,000 fold"
82,CCNCCCCNCCCCNCCCCNC/C=C(/CS)CNCCCCNCCCCNCCCCNCC [PrC-116],2.32,66,23,11,5.8,,IC50 (DNA; [5]): 63 µM
89,CCNCCCCNCCCCNCC=C(CNC)CNCCCCNCCCCNCC [PrC-119],1.80,,,,470,202,
